Experiments:
[1] = system: acne vulgaris or acne rosacea; assay: Clinical studies of topical formulations in acne patients, compared to placebo or to nicotinamide alone; assay type: in vivo, human; details: over one thousand acne patients
skin = details: concentrations 1.0% to 10%

SMILES	efficacy in treating acne vulgaris or acne rosacea compared to placebo [1]	irritation on continuous or regular topical application (skin)
NC(=O)c1cccnc1 [nicotinamide]	modestly effective	–
O=C(O)c1cccnc1 [nicotinic acid]	–	too irritating

Reference: patent publication US20050169948A1, “Method and compositions for treatment of acne vulgaris and acne rosacea” (priority 2004, published 2005)
